According to ChEMBL document CHEMBL1201862, “PubChem BioAssay data set” (2004):
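Briefly, cells in 96-well plates were exposed to five compound concentrations for 48 h, and endpoints were estimated by linear interpolation. GI50 = concentration required for 50% inhibition of growth.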 Active and inactive are the calls of the source. Cut-off read from the data, not from the text of the source: active = GI50 up to about 1.1 µM and inactive = higher.

Legend:
Experiment in all cases: NCI anticancer screen, dose series, 48 h
786-0 = system: 786-0
A498 = system: A498
A549 = system: A549
ACHN = system: ACHN
BT-549 = system: BT-549
CAKI-1 = system: CAKI-1
CCRF-CEM = system: CCRF-CEM
COLO 205 = system: COLO 205
DU-145 = system: DU-145
EKVX = system: EKVX
HCC 2998 = system: HCC 2998
HCT-116 = system: HCT-116
HCT-15 = system: HCT-15
HL-60 = system: HL-60
HOP-62 = system: HOP-62
HOP-92 = system: HOP-92
HT-29 = system: HT-29
Hs-578T = system: Hs-578T
IGROV-1 = system: IGROV-1
K562 = system: K562
KM12 = system: KM12
LOX IMVI = system: LOX IMVI
M14 = system: M14
MCF7 = system: MCF7
MDA-MB-231 = system: MDA-MB-231
MDA-MB-435 = system: MDA-MB-435
MDA-N = system: MDA-N
MOLT-4 = system: MOLT-4
Malme-3M = system: Malme-3M
NCI-H226 = system: NCI-H226
NCI-H23 = system: NCI-H23
NCI-H460 = system: NCI-H460
NCI-H522 = system: NCI-H522
NCI/ADR-RES = system: NCI/ADR-RES
OVCAR-3 = system: OVCAR-3
OVCAR-4 = system: OVCAR-4
OVCAR-5 = system: OVCAR-5
OVCAR-8 = system: OVCAR-8
PC-3 = system: PC-3
RPMI-8226 = system: RPMI-8226
RXF 393 = system: RXF 393
SF-268 = system: SF-268
SF-295 = system: SF-295
SF-539 = system: SF-539
SK-MEL-28 = system: SK-MEL-28
SK-MEL-2 = system: SK-MEL-2
SK-MEL-5 = system: SK-MEL-5
SK-OV-3 = system: SK-OV-3
SN12C = system: SN12C
SNB-19 = system: SNB-19
SNB-75 = system: SNB-75
SR = system: SR
SW-620 = system: SW-620
T47D = system: T47D
TK-10 = system: TK-10
U-251 = system: U-251
UACC-257 = system: UACC-257
UACC-62 = system: UACC-62
UO-31 = system: UO-31

COC(=O)/C=C1\C(=O)N(C(C)=O)c2ccc(Br)cc21
GI50 (786-0): 5.46 µM (inactive) | GI50 (A498): 21.9 µM (inactive) | GI50 (A549): 17.5 µM (inactive) | GI50 (ACHN): 11.6 µM (inactive) | GI50 (BT-549): 9.08 µM (inactive) | GI50 (CAKI-1): 21.3 µM (inactive) | GI50 (CCRF-CEM): 1.47 µM (inactive) | GI50 (COLO 205): 13.7 µM (inactive) | GI50 (DU-145): 12.8 µM (inactive) | GI50 (EKVX): 15.2 µM (inactive) | GI50 (HCC 2998): 17.7 µM (inactive) | GI50 (HCT-116): 6.92 µM (inactive) | GI50 (HCT-15): 6.75 µM | GI50 (HL-60): 2.23 µM (inactive) | GI50 (HOP-62): 13.2 µM (inactive) | GI50 (HOP-92): 13.6 µM (inactive) | GI50 (HT-29): 8.87 µM (inactive) | GI50 (Hs-578T): 8.39 µM (inactive) | GI50 (IGROV-1): 7.6 µM (inactive) | GI50 (K562): 7.69 µM (inactive) | GI50 (KM12): 14.3 µM (inactive) | GI50 (LOX IMVI): 7.89 µM (inactive) | GI50 (M14): 10.4 µM (inactive) | GI50 (MCF7): 4.5 µM (inactive) | GI50 (MDA-MB-231): 14.9 µM (inactive) | GI50 (MDA-MB-435): 9.35 µM (inactive) | GI50 (MDA-N): 11 µM (inactive) | GI50 (MOLT-4): 3.03 µM (inactive) | GI50 (Malme-3M): 14.1 µM (inactive) | GI50 (NCI-H226): 15.1 µM (inactive) | GI50 (NCI-H23): 15.3 µM (inactive) | GI50 (NCI-H460): 14.6 µM (inactive) | GI50 (NCI-H522): 3.73 µM (inactive) | GI50 (NCI/ADR-RES): 11.7 µM (inactive) | GI50 (OVCAR-3): 4.76 µM (inactive) | GI50 (OVCAR-4): 13.2 µM (inactive) | GI50 (OVCAR-5): 17.3 µM (inactive) | GI50 (OVCAR-8): 8.43 µM (inactive) | GI50 (PC-3): 8.75 µM (inactive) | GI50 (RPMI-8226): 2.66 µM (inactive) | GI50 (RXF 393): 7.46 µM (inactive) | GI50 (SF-268): 7.46 µM (inactive) | GI50 (SF-295): 16.9 µM (inactive) | GI50 (SF-539): 4.67 µM (inactive) | GI50 (SK-MEL-28): 14.5 µM (inactive) | GI50 (SK-MEL-2): 13.9 µM (inactive) | GI50 (SK-MEL-5): 9.68 µM (inactive) | GI50 (SK-OV-3): 15.4 µM (inactive) | GI50 (SN12C): 5.71 µM (inactive) | GI50 (SNB-19): 14.3 µM (inactive) | GI50 (SNB-75): 8.59 µM (inactive) | GI50 (SR): 2.8 µM (inactive) | GI50 (SW-620): 6.03 µM (inactive) | GI50 (T47D): 5.02 µM (inactive) | GI50 (TK-10): 6.31 µM (inactive) | GI50 (U-251): 8.05 µM (inactive) | GI50 (UACC-257): 10.7 µM (inactive) | GI50 (UACC-62): 11.6 µM (inactive) | GI50 (UO-31): 0.69 µM (active)

COc1ccc([C@H]2C=C(c3cc(F)c(Cl)cc3Cl)NC(=S)N2)cc1
GI50 (786-0): 33.6 µM (inactive) | GI50 (A498): 28.1 µM (inactive) | GI50 (A549): 35.3 µM (inactive) | GI50 (ACHN): 36.9 µM (inactive) | GI50 (BT-549): 32.7 µM (inactive) | GI50 (CAKI-1): 29.4 µM (inactive) | GI50 (CCRF-CEM): 30.2 µM (inactive) | GI50 (COLO 205): 19.1 µM (inactive) | GI50 (DU-145): 39.9 µM (inactive) | GI50 (EKVX): 28 µM (inactive) | GI50 (HCC 2998): 23.9 µM (inactive) | GI50 (HCT-116): 27 µM (inactive) | GI50 (HCT-15): 28.7 µM | GI50 (HL-60): 11.3 µM (inactive) | GI50 (HOP-62): 38.6 µM (inactive) | GI50 (HOP-92): 24 µM (inactive) | GI50 (HT-29): 26.2 µM (inactive) | GI50 (Hs-578T): 79.1 µM (inactive) | GI50 (IGROV-1): 31.4 µM (inactive) | GI50 (K562): 15.2 µM (inactive) | GI50 (KM12): 29.2 µM (inactive) | GI50 (LOX IMVI): 37.3 µM (inactive) | GI50 (M14): 32.5 µM (inactive) | GI50 (MCF7): 32.6 µM (inactive) | GI50 (MDA-MB-231): 27.2 µM (inactive) | GI50 (MDA-MB-435): 12.8 µM (inactive) | GI50 (MDA-N): 11.1 µM (inactive) | GI50 (MOLT-4): 17.7 µM (inactive) | GI50 (Malme-3M): 40.6 µM (inactive) | GI50 (NCI-H226): 56.1 µM (inactive) | GI50 (NCI-H23): 37.5 µM (inactive) | GI50 (NCI-H460): 20.1 µM (inactive) | GI50 (NCI-H522): 31.8 µM (inactive) | GI50 (NCI/ADR-RES): 25.7 µM (inactive) | GI50 (OVCAR-3): 33.7 µM (inactive) | GI50 (OVCAR-4): 28.3 µM (inactive) | GI50 (OVCAR-5): 43.1 µM (inactive) | GI50 (OVCAR-8): 40.3 µM (inactive) | GI50 (PC-3): 19.9 µM (inactive) | GI50 (RPMI-8226): 21.7 µM (inactive) | GI50 (RXF 393): 18.8 µM (inactive) | GI50 (SF-268): 48.5 µM (inactive) | GI50 (SF-295): 24.3 µM (inactive) | GI50 (SF-539): 42.4 µM (inactive) | GI50 (SK-MEL-28): 47 µM (inactive) | GI50 (SK-MEL-2): 25.1 µM (inactive) | GI50 (SK-MEL-5): 11.9 µM (inactive) | GI50 (SK-OV-3): 44.1 µM (inactive) | GI50 (SN12C): 21.3 µM (inactive) | GI50 (SNB-19): 61 µM (inactive) | GI50 (SNB-75): 18.2 µM (inactive) | GI50 (SR): 5.24 µM (inactive) | GI50 (SW-620): 30.9 µM (inactive) | GI50 (T47D): 18.7 µM (inactive) | GI50 (TK-10): 32.7 µM (inactive) | GI50 (U-251): 26.7 µM (inactive) | GI50 (UACC-257): 24.9 µM (inactive) | GI50 (UACC-62): 28.3 µM (inactive) | GI50 (UO-31): 36.6 µM (inactive)
